# Experimental data: ChEMBL document CHEMBL1140504, “Mimetics of the tri- and tetrasaccharide epitope of GQ1balpha as myelin-associated glycoprotein (MAG) ligands” (Bioorg Med Chem, 2007)
# Active and inactive are the calls of the source. The calls are words filed in the database; no cut-off is given here.
# Molecular target: T1, Myelin-associated glycoprotein (Homo sapiens) (UniProt P20916)
# T1 sequence (whole entry): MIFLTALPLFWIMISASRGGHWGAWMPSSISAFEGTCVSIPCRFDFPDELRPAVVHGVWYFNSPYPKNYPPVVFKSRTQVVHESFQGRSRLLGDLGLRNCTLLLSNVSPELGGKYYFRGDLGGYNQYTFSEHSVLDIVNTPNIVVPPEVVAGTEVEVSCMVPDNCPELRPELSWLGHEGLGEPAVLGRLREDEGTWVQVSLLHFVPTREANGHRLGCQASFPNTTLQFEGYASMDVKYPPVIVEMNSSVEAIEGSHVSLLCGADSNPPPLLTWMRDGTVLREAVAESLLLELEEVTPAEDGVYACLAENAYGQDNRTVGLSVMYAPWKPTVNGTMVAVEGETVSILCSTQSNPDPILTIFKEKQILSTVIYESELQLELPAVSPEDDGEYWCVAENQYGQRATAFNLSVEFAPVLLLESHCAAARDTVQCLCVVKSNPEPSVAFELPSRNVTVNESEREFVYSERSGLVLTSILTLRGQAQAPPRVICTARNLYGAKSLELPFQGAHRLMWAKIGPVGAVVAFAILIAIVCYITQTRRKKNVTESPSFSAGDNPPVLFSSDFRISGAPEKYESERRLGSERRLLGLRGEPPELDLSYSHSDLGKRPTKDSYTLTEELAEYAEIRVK
# Assay: Ratio of IC50 for drug to sodium (2S,4S,5R,6R)-5-acetami do-2-((2R,3R,4S,5S,6R)-2-((2R, 3R,4S,6S)-3-acetamido-6-(hydro xymethyl)-2-(2-(trimethylsilyl )ethoxy)-tetrahydro-2H-pyran-4 -yloxy)-3,5-dihydroxy-6-(hydro xymethyl)-tetrahydro-2H-pyran- 4-yloxy)-4-hydroxy-6-((1S,2R)- 1,2,3-trihydroxypropyl)-tetrah ydro-2H-pyran-2-carboxylate for human recombinant MAG N-terminal domain expressed in CHO cells
# Type: cell-based
Structure (SMILES),Activity,Ratio IC50
CC(=O)N[C@H]1[C@H](OCC[Si](C)(C)C)O[C@H](CO[C@]2(C(=O)O)C[C@H](O)[C@@H](NC(C)=O)[C@H]([C@H](O)[C@H](O)CO)O2)C[C@@H]1O[C@@H]1O[C@H](CO)[C@H](O)[C@H](O[C@]2(C(=O)O)C[C@H](O)[C@@H](NC(C)=O)[C@H]([C@@H](O)[C@H](O)CO)O2)[C@H]1O,,4
CC(=O)N[C@H]1[C@H]([C@@H](O)[C@H](O)CO)O[C@@](Oc2cccc(-c3ccc(CC(=O)O)cc3)c2)(C(=O)O)C[C@@H]1O,,1
CC(=O)N[C@H]1[C@H]([C@@H](O)[C@H](O)CO)O[C@@](Oc2cccc(-c3cn(-c4ccc(C(=O)O)cc4)nn3)c2)(C(=O)O)C[C@@H]1O,,0.9
CC(=O)N[C@H]1[C@H]([C@@H](O)[C@H](O)CO)O[C@@](Oc2cccc(-c3cn(CC(=O)O)nn3)c2)(C(=O)O)C[C@@H]1O,,1.1
CO[C@]1(C(=O)O)C[C@H](O)[C@@H](NC(C)=O)[C@H]([C@@H](O)[C@H](O)CO)O1,,0.07

# The next lines start with the values.
Activity,Ratio IC50,Structure (SMILES)
inactive,,CC(=O)N[C@H]1[C@H]([C@@H](O)[C@H](O)CO)O[C@](OCc2cccc(Oc3ccccc3)c2)(C(=O)O)C[C@@H]1O
,0.62,CC(=O)N[C@H]1[C@H]([C@@H](O)[C@H](O)CO)O[C@@](OCc2ccccc2)(C(=O)O)C[C@@H]1O
inactive,,CC(=O)N[C@H]1[C@H]([C@@H](O)[C@H](O)CO)O[C@](Oc2ccc(Oc3ccccc3)cc2)(C(=O)O)C[C@@H]1O
,0.89,CC(=O)N[C@H]1[C@H]([C@@H](O)[C@H](O)CO)O[C@@](Oc2ccc(Oc3ccccc3)cc2)(C(=O)O)C[C@@H]1O
,0.38,CC(=O)N[C@H]1[C@H]([C@@H](O)[C@H](O)CO)O[C@@](OCc2ccc(-c3ccccc3)cc2)(C(=O)O)C[C@@H]1O
